Laboratory results from paper PMC11597817, “Modulation of Multispecific Transporters by Uncaria tomentosa Extract and Its Major Phytoconstituents” (Pharmaceutics, 2024).

Legend:
OATP1B3 = test system: OATP1B3; parameters: method as in ref 75 (a number printed in a supplementary file, which may have a reference list of its own: not looked up in the article's list); settings: cited from earlier work; for inhibition: OATP1B1/3
OATP1B1 = test system: OATP1B1; parameters: method as in ref 75 (a number printed in a supplementary file, which may have a reference list of its own: not looked up in the article's list); settings: cited from earlier work; for inhibition: OATP1B1/3
rMDR1a = test system: rMDR1a; parameters: method as in ref 157 (a number printed in a supplementary file, which may have a reference list of its own: not looked up in the article's list); settings: transcription and expression; cited from earlier work
rMRP1 = test system: rMRP1; parameters: method as in ref 156 (a number printed in a supplementary file, which may have a reference list of its own: not looked up in the article's list); settings: transcription and expression; cited from earlier work
rMRP2 = test system: rMRP2; parameters: method as in ref 157 (a number printed in a supplementary file, which may have a reference list of its own: not looked up in the article's list); settings: transcription and expression; cited from earlier work
rMRP4 = test system: rMRP4; parameters: method as in ref 157 (a number printed in a supplementary file, which may have a reference list of its own: not looked up in the article's list); settings: transcription and expression; cited from earlier work
rNTCP = test system: rNTCP; parameters: method as in ref 157 (a number printed in a supplementary file, which may have a reference list of its own: not looked up in the article's list); settings: transcription and expression; cited from earlier work
[1] = test system: pregnane X receptor (PXR); settings: cited from earlier work
A2780 = test: Antiproliferative MTT assay; type: cell-based, human; settings: 30 μM pure natural product, 72 h
Experimental: (§1) For the determination of the antiproliferative properties of the prepared extract and selected alkaloids (isopteropodine, mitraphylline, and uncarine D), an MTT assay was applied on our […] cell panel (see Table S4). […] All were maintained in a minimal essential medium completed with 10% fetal bovine serum, 1% non-essential amino acids, and 1% penicillin–streptomycin at 37 °C in a humidified atmosphere containing 5% CO2. All cell lines were purchased from the European Collection of Cell Cultures (Salisbury, UK), except for SiHa and C33A, which were from the American Tissue Culture Collection, LGC Standards GmbH (Wesel, Germany). Cell culture media and supplements were obtained from Lonza Group Ltd. (Basel, Switzerland). Cells were seeded into 96-well plates (C33A 10,000/well, all others 5000/well); after overnight incubation, the test substances were added and incubated for another 72 h under cell-culturing conditions. Uncaria tomentosa extract and the alkaloids were tested in the 1–90 μg/mL and 1–30 μM ranges, respectively. Finally, 20 μL of 5 mg/mL MTT solution was added to each well and incubated for 4 h; the medium was discarded, and the precipitated formazan crystals were dissolved in DMSO for 60 min with shaking. The absorbance was determined using a microplate reader (SPECTROstar Nano, BMG Labtech GmbH). Two independent experiments were performed with five parallels for each condition. Cisplatin, a clinically used anticancer agent (Ebewe GmbH, Unterach, Austria), was included as a reference compound. Calculations were conducted using the GraphPad Prism 10.0 software (GraphPad Software Inc., San Diego, CA, USA).
(§2) Table S4 – Antiproliferative properties of Uncaria tomentosa extract, three natural products (isopteropodine, mitraphylline, and uncarine D) and the
(§3) reference agent cisplatin.
(§4) Cell line Uncaria tomentosa isopteropodine mitraphylline uncarine D [95% confidence
(§5) 1: The highest applied concentration was 90 μg/mL and 30 μM for the extract and the pure natural products, respectively.
(§6) 2: Inhibitions less than 20% compared to the untreated control were regarded as negligible and were not given numerically.

SiHa = test: Antiproliferative MTT assay; type: cell-based, human; settings: 72 h
Experimental: as §1, §2, §3, §4, §5, §6

HEK293-Mock = test: Antiproliferative MTT assay; type: cell-based, human; settings: 72 h
Experimental: as §1, §2, §3, §4, §5, §6

T47D = test: Antiproliferative MTT assay; type: cell-based, human; settings: 30 μM pure natural product, 72 h
Experimental: as §1, §2, §3, §4, §5, §6

MDA-MB-231 = test: Antiproliferative MTT assay; type: cell-based, human; settings: 30 μM pure natural product, 72 h
Experimental: as §1, §2, §3, §4, §5, §6

HeLa = test: Antiproliferative MTT assay; type: cell-based, human; settings: 30 μM pure natural product, 72 h
Experimental: as §1, §2, §3, §4, §5, §6

MCF7 = test: Antiproliferative MTT assay; type: cell-based, human; settings: 30 μM pure natural product, 72 h
Experimental: as §1, §2, §3, §4, §5, §6

HEK293-Mock-B = test: Antiproliferative MTT assay; type: cell-based, human; settings: 72 h
Experimental: as §1, §2, §3, §4, §5, §6

C33A = test: Antiproliferative MTT assay; type: cell-based, human; settings: 72 h
Experimental: as §1, §2, §3, §4, §5, §6

NIH/3T3 = test: Antiproliferative MTT assay; type: cell-based, murine; settings: 72 h
Experimental: as §1, §2, §3, §4, §5, §6

Rat BSEP = test system: Rat BSEP; parameters: method as in ref 154 (a number printed in a supplementary file, which may have a reference list of its own: not looked up in the article's list); settings: cited from earlier work
MDR1 = settings: cited from earlier work
mBCRP = test system: mBCRP; parameters: method as in ref 154 (a number printed in a supplementary file, which may have a reference list of its own: not looked up in the article's list); settings: cited from earlier work
mouse MRP1 = test system: mouse MRP1; parameters: method as in ref 154 (a number printed in a supplementary file, which may have a reference list of its own: not looked up in the article's list); settings: cited from earlier work
ABCG5/8 = test system: ABCG5/8; parameters: method as in ref 155 (a number printed in a supplementary file, which may have a reference list of its own: not looked up in the article's list); settings: cited from earlier work
DAT = test system: DAT; parameters: method as in ref 153 (a number printed in a supplementary file, which may have a reference list of its own: not looked up in the article's list); settings: cited from earlier work
SERT = test system: SERT; parameters: method as in ref 153 (a number printed in a supplementary file, which may have a reference list of its own: not looked up in the article's list); settings: cited from earlier work
NET = test system: NET; parameters: method as in ref 153 (a number printed in a supplementary file, which may have a reference list of its own: not looked up in the article's list); settings: cited from earlier work
HEK293-OCT2 = type: cell-based, human
Experimental: as §1, §2, §3, §4, §5, §6

HEK293-OCT1 = type: cell-based, human
Experimental: as §1, §2, §3, §4, §5, §6

HEK293-OATP2B1 = type: cell-based, human
Experimental: as §1, §2, §3, §4, §5, §6

HEK293-OATP1B3 = type: cell-based, human
Experimental: as §1, §2, §3, §4, §5, §6

HEK293-OAT1 = type: cell-based, human
Experimental: as §1, §2, §3, §4, §5, §6

[2] = read-out: cisplatin IC50 [95% confidence interval]

In the case of `CC(C)=CCC[C@](C)(O)[C@@H]1CC=C(C)CC1` [Alpha-bisbolol], the inhibition (OATP1B3) is listed as under 50% and the inhibition (OATP1B1) is listed as under 50%.
For `CC(C)C1=CC2=CC[C@@H]3[C@](C)(CCC[C@@]3(C)C(=O)O)[C@H]2CC1` [Abietic acid], the Ki (OATP1B3; second value of OATP1B1/3 pair) is given as 4.08 µM and the Ki (OATP1B1; first value of OATP1B1/3 pair) is given as 1.47 µM.
For `CC1(C)C2CCC1(C)C(O)C2` (stereo not shown) [Borneol], the Type of interaction (rMDR1a) is given as “inhibited the transcription”, the Type of interaction (rMRP1) is given as “inhibited the transcription” and the Type of interaction (rMRP2) is given as “inhibited the transcription”. The Type of interaction (rMRP4) was “inhibited the transcription” and the Type of interaction (rNTCP) was “inhibited the transcription”.
In the case of `COC(=O)C1=CO[C@@H](C)[C@@H]2CN3CC[C@]4(C(=O)Nc5ccccc54)[C@@H]3C[C@H]12` [pteropodine], the PXR activation [1] is listed as “PXR activators”.
In the case of `O=C1CC(c2ccccc2)Oc2cc(O)cc(O)c21` (stereo not shown) [5,7-Dihydroxyflavanone], the inhibition (OATP1B3) is given as under 50% and the inhibition (OATP1B1) is given as under 50%.
In the case of `COC(=O)C1=CO[C@@H](C)[C@@H]2CN3CC[C@@]4(C(=O)Nc5ccccc54)[C@H]3C[C@H]12` [uncarine D], the “Cell growth inhibition at the highest concentration (% ± SEM)” value (“Cell growth inhibition … (% ± SEM)” for short) (A2780) is reported as under 20%, the “Cell growth inhibition … (% ± SEM)” value (SiHa; 30 μM pure natural product) is reported as under 20% and the “Cell growth inhibition … (% ± SEM)” value (HEK293-Mock; 30 μM pure natural product) is reported as under 20%. For the same compound, the “Cell growth inhibition … (% ± SEM)” value (T47D) was under 20%, the “Cell growth inhibition … (% ± SEM)” value (MDA-MB-231) was under 20% and the “Cell growth inhibition … (% ± SEM)” value (HeLa) was under 20%. The “Cell growth inhibition … (% ± SEM)” value (MCF7) was under 20%, the “Cell growth inhibition … (% ± SEM)” value (HEK293-Mock-B; 30 μM pure natural product) was under 20% and the “Cell growth inhibition … (% ± SEM)” value (C33A; 30 μM pure natural product) was under 20%. For the same compound, the “Cell growth inhibition … (% ± SEM)” value (NIH/3T3; 30 μM pure natural product) was under 20%.
For `C=C[C@H]1CN2CC[C@]3(C(=O)Nc4ccccc43)[C@@H]2C[C@@H]1/C(=C\OC)C(=O)OC` [corynoxeine], the PXR activation [1] is given as “PXR activators”.
In the case of `CC[C@H](CC[C@@H](C)[C@H]1CC[C@H]2[C@@H]3CC=C4C[C@@H](O)CC[C@]4(C)[C@H]3CC[C@]12C)C(C)C` [Beta-Sitosterol], the Type of interaction (Rat BSEP) is given as “no substrate, no inhibitor”, the Type of interaction (MDR1) is given as “no substrate, no inhibitor” and the Type of interaction (mBCRP) is given as “no substrate, no inhibitor”. The Type of interaction (mouse MRP1) was “no substrate, no inhibitor” and the Type of interaction (ABCG5/8) was “probably substrate”.
In the case of `CC1(C)CCC2(C(=O)O)CCC3(C)C(=CCC4C5(C)CCC(O)C(C)(CO)C5CCC43C)C2C1` (stereo not drawn) [alpha-Hederagenin], the IC50 (DAT) is listed as 0.00109 ± 0.00012 µM, the IC50 (SERT) is listed as 0.00134 ± 4e-05 µM and the IC50 (NET) is listed as 0.00015 ± 2e-05 µM.
For `C=C[C@H]1CN2CC[C@@]3(C(=O)Nc4ccccc43)[C@@H]2C[C@@H]1/C(=C\OC)C(=O)OC` [isocorynoxeine], the PXR activation [1] is given as “PXR activators”.
For `CC[C@H](CC[C@@H](C)[C@H]1CC[C@H]2[C@@H]3CC=C4C[C@@H](O)CC[C@]4(C)[C@H]3CC[C@]12C)C(C)C` [Stigmast-5-en-3beta-ol], the inhibition (OATP1B3) is listed as under 50% and the inhibition (OATP1B1) is listed as under 50%.
`N.N.[Cl][Pt][Cl]` [cisplatin, reference compound] showed an IC50 (SiHa; [2]) of 4.29 µM, an IC50 (HEK293-Mock; [2]) of 19.5 µM and an IC50 (HEK293-Mock-B; [2]) of 13.3 µM. The IC50 (C33A; [2]) was 5.85 µM, the IC50 (NIH/3T3; [2]) was 5.5 µM and the IC50 (HEK293-OCT2) was 5.51 µM. The IC50 (HEK293-OCT1) was 9.14 µM, the IC50 (HEK293-OATP2B1) was 9.7 µM and the IC50 (HEK293-OATP1B3) was 11.2 µM. The IC50 (HEK293-OAT1) was 5.55 µM.
For `COc1cc(O)cc(/C=C/c2ccccc2)c1` [Pinosylvin 3-(methyl ether)], the inhibition (OATP1B3) is listed as under 50% and the inhibition (OATP1B1) is listed as under 50%.
